Results from patent publication US7217711B2, “Piperazin-1-yl and 2-([1,4]diazepan-1-yl)-imidazo[4,5-d]-pyridazin-4-ones, the preparation thereof and their use as pharmaceutical compositions” (Boehringer Ingelheim International GmbH, priority 2003, dated 2007).

target: T1, DPP-IV (Homo sapiens, UniProt P27487); assay: DPP-IV assay with extract of Caco-2 cells as DPP IV source, AFC substrate, fluorescence; assay type: biochemical; conditions: extract of human colon carcinoma cell line Caco-2; substrate 100 μM; 60 minutes at ambient temperature; read-out: DPP IV inhibition IC50
T1 construct: an extract of the human colon carcinoma cell line Caco-2 is used as the DPP IV source; endogenous in cells; host or cells: Caco-2 (human colon carcinoma), differentiated to induce DPP-IV expression; Nonidet-P40 solubilised extract
Protocol: The cell extract was obtained from cells solubilised in a buffer (10 mM Tris HCl, 0.15 M NaCl, 0.04 t.i.u. aprotinin, 0.5% Nonidet-P40, pH 8.0) by centrifugation at 35,000 g for 30 minutes at 4° C. (to remove cell debris).
The DPP-IV assay was carried out as follows:
50 μl of substrate solution (AFC; AFC is amido-4-trifluoromethylcoumarin), final concentration 100 μM, were placed in black microtitre plates. 20 μl of assay buffer (final concentrations 50 mM Tris HCl pH 7.8, 50 mM NaCl, 1% DMSO) was pipetted in. The reaction was started by the addition of 30 μl of solubilised Caco-2 protein (final concentration 0.14 μg of protein per well). The test substances under investigation were typically added prediluted to 20 μl, while the volume of assay buffer was then reduced accordingly. The reaction was carried out at ambient temperature, the incubation period was 60 minutes. […] Dummy values (corresponding to 0% activity) were obtained in mixtures with no Caco-2 protein (volume replaced by assay buffer), control values (corresponding to 100% activity) were obtained in mixtures without any added substance.

T1 sequence (P27487 whole entry): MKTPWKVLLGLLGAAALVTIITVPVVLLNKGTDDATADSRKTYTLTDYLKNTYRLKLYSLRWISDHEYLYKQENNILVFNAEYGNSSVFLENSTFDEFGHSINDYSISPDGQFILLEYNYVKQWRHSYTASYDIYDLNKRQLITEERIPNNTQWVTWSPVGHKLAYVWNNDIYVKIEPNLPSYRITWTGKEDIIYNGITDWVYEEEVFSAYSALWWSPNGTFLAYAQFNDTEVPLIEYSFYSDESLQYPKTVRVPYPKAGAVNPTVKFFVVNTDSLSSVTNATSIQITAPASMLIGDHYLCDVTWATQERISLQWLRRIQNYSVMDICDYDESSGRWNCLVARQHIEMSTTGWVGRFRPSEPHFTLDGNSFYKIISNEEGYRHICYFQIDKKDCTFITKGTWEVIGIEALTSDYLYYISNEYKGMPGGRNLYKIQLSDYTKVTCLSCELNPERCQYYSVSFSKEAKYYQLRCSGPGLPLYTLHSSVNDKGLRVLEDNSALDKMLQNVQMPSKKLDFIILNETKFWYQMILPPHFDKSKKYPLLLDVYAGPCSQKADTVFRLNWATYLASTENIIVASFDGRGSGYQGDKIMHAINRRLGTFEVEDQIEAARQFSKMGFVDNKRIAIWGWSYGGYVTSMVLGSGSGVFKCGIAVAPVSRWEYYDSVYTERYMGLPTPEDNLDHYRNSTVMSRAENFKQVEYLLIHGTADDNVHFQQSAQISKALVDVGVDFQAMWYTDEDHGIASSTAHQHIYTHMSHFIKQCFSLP

In order of falling IC50:
1. CC#CCn1c(N2CCCNCC2)nc2cnn(Cc3cc(C)c4nc(C)c(C)nc4c3)c(=O)c21 [1(2), 2-([1,4]diazepan-1-yl)-3-(2-butyn-1-yl)-5-[(2,3,8-trimethyl-quinoxalin-6-yl)methyl]-3,5-dihydro-imidazo[4,5-d]pyridazin-4-one]  17 nM
2. CC#CCn1c(N2CCNCC2)nc2cnn(Cc3cc(C)c4nc(C)c(C)nc4c3)c(=O)c21 [Example 2, 2-(piperazin-1-yl)-3-(2-butyn-1-yl)-5-[(2,3,8-trimethyl-quinoxalin-6-yl)methyl]-3,5-dihydro-imidazo[4,5-d]pyridazin-4-one]  14 nM
3. CC#CCn1c(N2CCCNCC2)nc2cnn(Cc3nc4c(C)cccc4o3)c(=O)c21 [1(13), 2-([1,4]diazepan-1-yl)-3-(2-butyn-1-yl)-5-[(4-methyl-benzoxazol-2-yl)methyl]-3,5-dihydro-imidazo[4,5-d]pyridazin-4-one]  5 nM
4. CC#CCn1c(N2CCCNCC2)nc2cnn(Cc3ccc4c(c3)nnn4C)c(=O)c21 [1(12), 2-([1,4]diazepan-1-yl)-3-(2-butyn-1-yl)-5-[(1-methyl-1H-benzotriazol-5-yl)methyl]-3,5-dihydro-imidazo[4,5-d]pyridazin-4-one]  4 nM
5. CC#CCn1c(N2CCNCC2)nc2cnn(Cc3nc4c(C)cccc4o3)c(=O)c21 [1(9), 2-(piperazin-1-yl)-3-(2-butyn-1-yl)-5-[(4-methyl-benzoxazol-2-yl)methyl]-3,5-dihydro-imidazo[4,5-d]pyridazin-4-one]  3 nM
6. CC#CCn1c(N2CCNCC2)nc2cnn(Cc3ccc4c(c3)nnn4C)c(=O)c21 [1(11), 2-(piperazin-1-yl)-3-(2-butyn-1-yl)-5-[(1-methyl-1H-benzotriazol-5-yl)methyl]-3,5-dihydro-imidazo[4,5-d]pyridazin-4-one]  2 nM

test system: rats; assay: Tolerability in rats after oral administration; assay type: in vivo; conditions: oral administration of 10 mg/kg

For CC#CCn1c(N2CCNCC2)nc2cnn(Cc3nc(C)c4ccccc4n3)c(=O)c21 [Example 1, 2-(piperazin-1-yl)-3-(2-butyn-1-yl)-5-[(4-methyl-quinazolin-2-yl)methyl]-3,5-dihydro-imidazo[4,5-d]pyridazin-4-one], the toxic side effects was “no toxic side effects could be detected”.
